Data taken from BindingDB's records for doi:10.7270/Q2M9073J (Burnham Center For Chemical Genomics, 2010).

Target: T1, Tyrosine-protein phosphatase non-receptor type 22 (Homo sapiens, UniProt Q9Y2R2)
T1 sequence (Q9Y2R2 whole entry): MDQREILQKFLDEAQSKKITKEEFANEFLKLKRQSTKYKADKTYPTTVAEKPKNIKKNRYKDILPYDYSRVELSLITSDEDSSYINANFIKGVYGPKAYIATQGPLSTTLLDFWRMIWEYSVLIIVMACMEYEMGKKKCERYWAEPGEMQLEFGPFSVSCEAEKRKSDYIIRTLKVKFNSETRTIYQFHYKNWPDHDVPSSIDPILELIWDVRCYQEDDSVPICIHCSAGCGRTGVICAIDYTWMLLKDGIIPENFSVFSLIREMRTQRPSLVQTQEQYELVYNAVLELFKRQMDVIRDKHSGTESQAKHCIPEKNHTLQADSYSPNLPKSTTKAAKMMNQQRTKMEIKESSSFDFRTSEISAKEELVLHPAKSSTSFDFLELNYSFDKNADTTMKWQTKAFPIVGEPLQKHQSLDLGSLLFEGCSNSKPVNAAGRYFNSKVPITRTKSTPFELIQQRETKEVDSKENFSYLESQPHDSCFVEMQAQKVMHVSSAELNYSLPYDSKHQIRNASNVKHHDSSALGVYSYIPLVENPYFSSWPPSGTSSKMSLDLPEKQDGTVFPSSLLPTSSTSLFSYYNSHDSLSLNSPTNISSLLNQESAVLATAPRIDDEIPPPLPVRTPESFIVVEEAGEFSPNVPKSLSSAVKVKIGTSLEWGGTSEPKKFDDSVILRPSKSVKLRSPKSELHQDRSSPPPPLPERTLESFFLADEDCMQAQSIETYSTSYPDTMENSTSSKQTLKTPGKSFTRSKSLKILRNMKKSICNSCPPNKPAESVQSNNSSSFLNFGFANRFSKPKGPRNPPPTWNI
Test: LYP (PTPN22) phosphatase inhibitor potency, SAR follow-up, biochemical, pCAP fluorogenic substrate, fluorescence, set 3 (AID 449727)

## CCOc1ccc2nc(NC(=O)CSc3cc(O)c4c(C)c(C)sc4n3)sc2c1 [2-[(2,3-dimethyl-4-oxidanylidene-5H-thieno[2,3-b]pyridin-6-yl)sulfanyl]-N-(6-ethoxy-1,3-benzothiazol-2-yl)ethanamide]
  IC50: > 100 µM
